The subject of test [1] is CB2 receptor. To be noted: in the spleen; background; cited from earlier work.
Test [2] concerns CB1 receptor. To be noted: in the brain; background; cited from earlier work.
In test [3] the target is T1, CB2 receptor (Mus musculus, UniProt P47936).
T1 construct: Mouse spleen was used as a source of CB2 receptors; from tissue; host or cells: mouse spleen
The test can be described thus: Radioligand binding assay ([H^3]CP-55,940), mouse spleen as source of CB2. To be noted: for Ki: mouse spleen, conducted in the same manner as for CB1, Ki from IC50 (Cheng and Prusoff). As to the method: (§1) Approximately 30 μg of tissue was incubated in silanized 96 well microtiter plate with TME containing 0.1% essentially fatty acid free bovine serum albumin (BSA), 0.8 nM [H^3 ]CP-55,940 and various concentrations of the test compound in a final volume of 200 μL. Assays were incubated at 30° C. for 1 hour. The samples were filtered using Packard Filtermate 196 and Whatman GF/C Filterplates and washed with wash buffer (TME) containing 0.5% BSA. Radioactivity was detected using MicroScint 20 scintillation cocktail added directly to the dried filterplates, and the filterplates were counted using a Packard Instruments Top-Count. Nonspecific binding was assessed using 100 nM CP-55,940. Data collected from three independent experiments performed with duplicate determinations were normalized between 100% and 0% specific binding for [H^3 ]CP-55,940, determined using buffer and 100 nM CP-55,940. The normalized data was analyzed using a 4 parameter nonlinear logistic equation to yield IC50 values. Data from at least two independent experiments performed in duplicate were used to calculate IC50 values which were convered to Ki values using the assumptions of Cheng and Prusoff, Biochem. Pharmacol. 22:3099 (1973), the entire teachings of which are incorporated by reference.
Mouse spleen was used as a source of CB2 receptors to assess binding affinity of analogs described in this invention. The CB2 binding assay was conducted in the same manner as for CB1. Silanized centrifuge tubes were used throughout to minimize receptor loss due to adsorption.

Test [4] concerns the target T2, CB1 receptor (Rattus norvegicus, UniProt P20272).
T2 construct: rat forebrain membranes as a source of CB1; from tissue; host or cells: rat brain membranes (called forebrain; prepared from whole brains minus the cerebral cortex)
In words: Radioligand binding assay ([H^3]CP-55,940), rat forebrain membranes as source of CB1. To be noted: 0.8 nM [H^3]CP-55,940, 30° C., 1 hour, Ki from IC50 (Cheng and Prusoff). As to the method: The binding affinities of the novel compounds described in this invention for the central cannabinoid receptor were assessed using rat forebrain membranes as a source of CB1. Membranes were prepared as described by the method of Dodd et al., Brain Res. 226:107 (1981), the entire teachings of which are incorporated herein by reference. Rat whole brains minus the cerebral cortex were diced with a razor blade and homogenized in 0.32 M sucrose, pH 7.4. The resulting suspension was spun at 400×g at 4° C. The supernatant was decanted and layered over 1.2 M sucrose in TME buffer (25 mM Tris base, 5 mM MgCl2 1 mMEDTA, pH 7.4) and spun at 109,000×g. The interface containing plasma membrane protein was collected, pooled and layered over 0.8 M sucrose in TME, pH 7.4. The pellet was carefully resuspended in TME, pH 7.4 and the total protein content was assayed by the method of Markwell et al., Anal. Biochem. 87:206 (1978), the entire teachings of which are incorporated herein by reference. Protein was aliquotted, frozen under liquid nitrogen and stored at -80° C. until use.
as §1

Each structure is given as a SMILES string.

T2 sequence (P20272 whole entry): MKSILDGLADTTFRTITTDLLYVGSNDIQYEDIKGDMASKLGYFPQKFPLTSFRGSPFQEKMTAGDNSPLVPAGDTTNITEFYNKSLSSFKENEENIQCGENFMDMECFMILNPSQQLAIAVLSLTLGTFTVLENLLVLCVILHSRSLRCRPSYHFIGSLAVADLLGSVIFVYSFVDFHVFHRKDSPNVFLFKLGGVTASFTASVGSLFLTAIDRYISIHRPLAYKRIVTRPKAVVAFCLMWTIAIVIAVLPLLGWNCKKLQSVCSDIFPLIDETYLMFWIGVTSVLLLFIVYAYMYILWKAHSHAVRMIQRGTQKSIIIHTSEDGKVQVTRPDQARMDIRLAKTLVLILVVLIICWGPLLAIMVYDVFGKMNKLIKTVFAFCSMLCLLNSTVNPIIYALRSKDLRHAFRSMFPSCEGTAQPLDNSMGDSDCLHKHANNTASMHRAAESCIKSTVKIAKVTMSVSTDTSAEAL
T1 sequence (P47936 whole entry): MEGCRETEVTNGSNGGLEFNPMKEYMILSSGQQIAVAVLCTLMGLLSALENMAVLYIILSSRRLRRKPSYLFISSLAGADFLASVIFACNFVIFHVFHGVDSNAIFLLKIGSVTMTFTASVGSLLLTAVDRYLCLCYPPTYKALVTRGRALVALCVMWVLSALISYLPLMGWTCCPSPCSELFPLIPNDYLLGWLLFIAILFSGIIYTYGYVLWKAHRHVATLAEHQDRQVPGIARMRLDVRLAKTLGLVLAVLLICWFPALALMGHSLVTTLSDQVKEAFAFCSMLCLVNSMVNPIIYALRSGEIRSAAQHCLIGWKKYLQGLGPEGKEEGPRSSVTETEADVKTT

On to `CCCCCc1cc(O)c2c(c1)OC(C)(C)C1CC=C(C)CC21` (single isomer, unassigned) [Δ^8 -Tetrahydrocannabinol], for which, in the test with CB2 receptor [1], the “binding to the CB2 receptor” value is on record as “binds”. In addition, the “binding to the CB1 receptor” value in the test on CB1 receptor [2] is listed as “binds”.

Broadly, the Ki is a measure of affinity in units of concentration, obtained from inhibition or displacement. In the case of `CC1=CCC2C(C1)c1c(cc3c(c1O)C1CC(CCC1C)C3(C)C)OC2(C)C` (stereo not shown) [AM725], the Ki on CB2 receptor [3] was 0.281 µM; on CB1 receptor [4], 360 µM.

On to `CC1=CCC2C(C1)c1c(cc3c(c1O)C1CC(CCC1C)C3(C)C)OC2(C)C` (stereo not shown) [AM724], for which the “affinity for the CB2 receptor relative to the CB1 receptor” value at CB2 receptor [3] (CB2 (mouse spleen) versus CB1 (rat forebrain)) is on record as “about 400 times”. Besides, the figures for the Ki at CB2 receptor [3] and on CB1 receptor [4] were 0.0169 µM and 6.88 µM, respectively.

Consider `CCCCCC1CCc2c(cc3c(c2O)C2CC(C)=CCC2C(C)(C)O3)C1` (stereo not shown) [AM856], for which the values for the inhibition constant Ki on CB2 receptor [3] and at CB1 receptor [4] were 0.162 µM and 0.402 µM, respectively.

As to `CCCCCCC1CCCc2c1cc(O)c1c2OC(C)(C)C2CC=C(C)CC12` (stereo not shown) [AM858], the Ki at CB2 receptor [3] was determined as 0.456 µM; at CB1 receptor [4], 0.524 µM.

With `CCCCCCC1CCc2cc(O)c3c(c2C1)OC(C)(C)C1CC=C(C)CC31` (stereo not shown) [AM855], the inhibition constant Ki stood at 0.0586 µM on CB2 receptor [3] and 0.0223 µM on CB1 receptor [4].

(Values after patent US6166066A, “Cannabinoids selective for the CB2 receptor” (The University of Connecticut, priority 1999, dated 2000).)
